This is an account of results in patent publication US8536204B2, “Amides and thioamides as pesticides” (Bayer CropScience AG, priority 2009, dated 2013).

The nature of data set [1]: Determination of the logP values (formic acid method) by HPLC. The data set is classed as physicochemical. The following applies: reversed-phase HPLC column (C 18). On the procedure:
1) Description of Method for Determining the LogP Values (Formic Acid Method)
The logP values reported in the table were determined according to EEC-Directive 79/831 Annex V.A8 by HPLC (High Performance Liquid Chromatography) on a reversed-phase column (C 18). Temperature: 55° C.
Eluents for the determination in the acidic range (pH 3.4):
Eluent A: acetonitrile+1 ml of formic acid/litre. Eluent B: water+0.9 ml of formic acid/litre.
Gradient: from 10% eluent A/90% eluent B to 95% eluent A/5% eluent B in 4.25 min.
The calibration was effected with unbranched alkan-2-ones (with 3 to 16 carbon atoms), whose logP values are known (determination of the logP values on the basis of the retention times by linear interpolation between two successive alkanones). The lambda-max values were determined with reference to the UV spectra from 200 nm to 400 nm in the maxima of the chromatographic signals.

Data set [2] relates to green peach aphid (Myzus persicae). In words: Myzus test (spray treatment). The data set is classed as in vivo. The following applies: 144 h, application rate 500 g/ha, spray on Chinese cabbage leaf slices, after 6 days, read-out: efficacy in % (100% means that all aphids have been killed). The procedure: Myzus Test (Spray Treatment)
Solvent: • 78 parts by weight of acetone • 1.5 parts by weight of dimethylformamide
(§1) Emulsifier: 0.5 part by weight of alkylaryl polyglycol ether
(§2) To produce an appropriate active ingredient formulation, 1 part by weight of active ingredient is mixed with the amounts of solvent and emulsifier specified and the concentrate is diluted to the desired concentration with emulsifier-containing water.
Chinese cabbage leaf slices (Brassica pekinensis) infested by all stages of the green peach aphid (Myzus persicae) are sprayed with an active ingredient formulation of the desired concentration.
After 6 days, the efficacy in % is determined. 100% means that all aphids have been killed; 0% means that no aphids have been killed.

Data set [3] has as its system larvae of the mustard beetle (Phaedon cochleariae). In words: Phaedon test (spray treatment). The following applies: application rate 500 g/ha, spray on Chinese cabbage leaf slices, after 7 days. The data set is classed as in vivo. The procedure: Phaedon Test (Spray Treatment)
Solvent: • 78.0 parts by weight of acetone • 1.5 parts by weight of dimethylformamide
as §1, §2
Chinese cabbage leaf slices (Brassica pekinensis) are sprayed with an active ingredient formulation of the desired concentration and, after drying, populated with larvae of the mustard beetle (Phaedon cochleariae).
After 7 days, the efficacy in % is determined. 100% means that all beetle larvae were killed; 0% means that no beetle larvae were killed.

The subject of another data set is Boophilus microplus. The data set is described as follows: Boophilus microplus test (injection). The following applies: application rate 20 μg/animal, injected into the abdomen, after 7 days. The format is in vivo. The procedure:
Boophilus Microplus Test (Injection)
Solvent: dimethyl sulphoxide
To produce an appropriate active ingredient formulation, 10 mg of active ingredient is mixed with 0.5 ml of solvent stated and the concentrate is diluted to the desired concentration with solvent. The active ingredient solution is injected into the abdomen (Boophilus microplus); the animals are transferred to dishes and stored in a climate-controlled room. The action is monitored by the laying of fertile eggs.
After 7 days, the efficacy in % is determined. 100% means that no ticks have laid fertile eggs.

Where [4] appears, read: pH 3.4, HPLC on reversed-phase column (C 18), acidic range (pH 3.4), 55° C., Table 1, read-out: logP (HCOOH).

Like-named read-outs stand apart in the source and are kept apart here.

As for `Cc1nn(-c2cccnc2)cc1C(=O)NCCC(F)(F)F` [Example 32], the chromatographic logP in data set [1] (setting [4]) is 1.52. Further, the pest or weed control at 500 g/ha in data set [2] amounted to 100%.
Take `O=C(NCC(F)(F)F)c1cnn(-c2cccnc2)c1` [Example 3, 1-(pyridin-3-yl)-N-(2,2,2-trifluoroethyl)-1H-pyrazole-4-carboxamide]: the chromatographic logP in data set [1] (setting [4]) came to 1.18. In addition, the pest or weed control at 500 g/ha in data set [2] was 100%. Also, the “efficacy in % (100% means that all beetle larvae were killed)” value in data set [3] is 100%.
For `O=C(NCCF)c1cnn(-c2cccnc2)c1` [Example 9], the chromatographic logP in data set [1] (setting [4]) came to 0.56. Besides, in the data set with Boophilus microplus, the “efficacy in % (100% means that no ticks have laid fertile eggs)” value worked out at 100%. The pest or weed control at 500 g/ha in data set [2] was determined as 100%.
Turning to `Cc1nn(-c2cccnc2)cc1C(=O)NCCF` [Example 38], the chromatographic logP in data set [1] (setting [4]) turned out to be 0.87. For the same compound, the pest or weed control at 500 g/ha in data set [2] is 100%.
On to `COC(CNC(=O)c1cnn(-c2cccnc2)c1)OC` [Example 24], for which the chromatographic logP in data set [1] (setting [4]) amounted to 0.83. In addition, the pest or weed control at 500 g/ha in data set [2] turned out to be 100%.
As to `Cc1nn(-c2cccnc2)cc1C(=O)N(C)C` [Example 10], in data set [1] (setting [4]), the chromatographic logP is 0.7. Further, the pest or weed control at 500 g/ha in data set [2] is 100%.
`COC(=O)C1(NC(=O)c2cnn(-c3cccnc3)c2)CC1` [Example 45]: the chromatographic logP in data set [1] (setting [4]) turned out to be 0.84. The pest or weed control at 500 g/ha in data set [2] is 100%.
Regarding `FC(F)(F)CNC(=S)c1cnn(-c2cccnc2)c1` [Example 12, 1-(Pyridin-3-yl)-N-(2,2,2-trifluoroethyl)-1H-pyrazole-4-carbothioamide], the chromatographic logP in data set [1] (setting [4]) came out at 1.97; in data set [1] (pH 3.4, formic acid method, pH 3.4, given in the preparation examples, read-out: log P (HCOOH)) it was 1.97. Also, the pest or weed control at 500 g/ha in data set [2] worked out at 80%.
